Measured values taken from patent publication US4129648A, “Method for reducing endogenous prostaglandin synthesis” (priority 1977, dated 1978).
Counter-ions that a name gives are not always drawn.

Assays:
[1] = test system: bronchoconstriction induced by sodium arachidonate; assay: Dynamic compliance and airway resistance in the anaesthetized guinea pig challenged with sodium arachidonate; format: in vivo
Method: (§1) The ability of Cohn subfraction IV4 and haptoglobin to reduce the transient hypertension caused by administration of sodium arachidonate in the guinea pig was also measured. These tests were carried out as follows.
(§2) Male albino guinea pigs weighing 400-600 g each (Dunkin Hartley strain) were anesthetized by administration of sodium pentobarbitone, 60 mg/kg intraperitoneally. The trachea was cannulated for artificial ventilation by a Starling pump (5-8 ml at 72 strokes per minute) via a Fleisch 0000 pneumatachograph. The difference in pressure across this device was measured with a Grass differential pressure transducer. […] Transpulmonary pressure (TPP) was measured with another differential pressure transducer via side arms to the thoracic cavity and the tracheal cannula. The signals for low and TPP were applied to the analogue computer so that there was approximately 180° phase difference. The computer derived the dynamic compliance and resistance from the in-going signals. Drugs were administered intravenously via the external jugular vein. A 1 mg/ml solution of sodium arachidonate was prepared as follows. […] These doses were given at 30 minute intervals to produce a large but submaximal bronchoconstriction. After 2 or 3 similar responses to the same dose of sodium arachidonate had been obtained, the test substance in saline (0.1 to 1 ml) was injected intravenously. At various times thereafter, a challenge was given.

[2] = test system: transient hypertension induced by sodium arachidonate; assay: Mean arterial blood pressure in the anaesthetized guinea pig challenged with sodium arachidonate; format: in vivo; settings: dose 15 mg/kg intravenously
Method: as §1, §2
The left carotid artery was cannulated for recording blood pressure with a Grass pressure transducer (Consolidated Dynamics 0.75 cm Hg type 4L221) linked to a Devices twin channel polygraph via a CD2D pre-amplifier. Electrocardiograms were recorded using a DC6 pre-amplifier linked to the Devices polygraph.

[3] = dose 0.04 mg/kg intravenously, challenge 30 min after treatment
[4] = dose 0.20 mg/kg intravenously, challenge 30 min after treatment
[5] = dose 0.50 mg/kg intravenously, challenge 30 min after treatment
[6] = dose 0.50 mg/kg intravenously, challenge 60 min after treatment
[7] = dose 2 mg/kg intravenously, challenge 45 sec after treatment
[8] = dose 2 mg/kg intravenously, challenge 30 min after treatment
[9] = dose 15 mg/kg intravenously, challenge 45 sec after treatment
[10] = dose 15 mg/kg intravenously, challenge 10 min after treatment
[11] = dose 15 mg/kg intravenously, challenge 30 min after treatment
[12] = dose 15 mg/kg intravenously, challenge 60 min after treatment
[13] = dose 15 mg/kg intravenously, challenge 90 min after treatment
[14] = dose 15 mg/kg intravenously, challenge 120 min after treatment

C[C@]12CCC(=O)C=C1CC[C@@H]1[C@@H]2[C@@H](O)C[C@]2(C=O)[C@@H](C(=O)CO)CC[C@@H]12 [Aldosterone, aldosterone]
Mean % Inhibition (± s.e.) of educed dynamic lung compliance [1, 3]: 0%
Mean % Inhibition (± s.e.) of increased airway resistance [1, 3]: 9.0%
Mean % Inhibition (± s.e.) of educed dynamic lung compliance [1, 4]: 1.0%
Mean % Inhibition (± s.e.) of increased airway resistance [1, 4]: 14.0%
Mean % Inhibition (± s.e.) of educed dynamic lung compliance [1, 5]: 10.5 ± 6.5%
Mean % Inhibition (± s.e.) of increased airway resistance [1, 5]: 0%
Mean % Inhibition (± s.e.) of educed dynamic lung compliance [1, 6]: 5.0 ± 5.0%
Mean % Inhibition (± s.e.) of increased airway resistance [1, 6]: 6.5 ± 6.5%

CC(=O)Oc1ccccc1C(=O)O [Aspirin, aspirin calcium salt]
Mean % Inhibition (± s.e.) of educed dynamic lung compliance [1, 7]: 71.5 ± 6.5%
Mean % Inhibition (± s.e.) of increased airway resistance [1, 7]: 85.5 ± 3.5%
Mean % Inhibition (± s.e.) of educed dynamic lung compliance [1, 8]: 81.5 ± 7.5%
Mean % Inhibition (± s.e.) of increased airway resistance [1, 8]: 91.0 ± 9.0%

C[C@]12CCC(=O)C=C1CC[C@@H]1[C@@H]2[C@@H](O)C[C@@]2(C)[C@H]1CC[C@]2(O)C(=O)COC(=O)CCC(=O)O [Hydrocortisone, hydrocortisone sodium succinate]
Mean % Inhibition (± s.e.) of hypertension ([2]; challenge 45 sec after treatment): 35.0 ± 2.0%
Mean % Inhibition (± s.e.) of hypertension ([2]; challenge 10 min after treatment): 48.0 ± 18.0%
Mean % Inhibition (± s.e.) of hypertension ([2]; challenge 30 min after treatment): 25.0 ± 25.0%
Mean % Inhibition (± s.e.) of hypertension ([2]; challenge 60 min after treatment): 25.0%
Mean % Inhibition (± s.e.) of educed dynamic lung compliance [1, 9]: 15.0 ± 7.5%
Mean % Inhibition (± s.e.) of increased airway resistance [1, 9]: 24.0 ± 1.5%
Mean % Inhibition (± s.e.) of educed dynamic lung compliance [1, 10]: 21.3 ± 4.2%
Mean % Inhibition (± s.e.) of increased airway resistance [1, 10]: 24.3 ± 6.8%
Mean % Inhibition (± s.e.) of educed dynamic lung compliance [1, 11]: 49.0 ± 9.7%
Mean % Inhibition (± s.e.) of increased airway resistance [1, 11]: 46.2 ± 5.7%
Mean % Inhibition (± s.e.) of educed dynamic lung compliance [1, 12]: 44.0 ± 6.0%
Mean % Inhibition (± s.e.) of increased airway resistance [1, 12]: 61.0 ± 3.0%
Mean % Inhibition (± s.e.) of educed dynamic lung compliance [1, 13]: 25.0%
Mean % Inhibition (± s.e.) of increased airway resistance [1, 13]: 54.0%
Mean % Inhibition (± s.e.) of educed dynamic lung compliance [1, 14]: 12.0%
Mean % Inhibition (± s.e.) of increased airway resistance [1, 14]: 17.0%
